The nature of data set [1]: Phase solubility of ganaxolone in aqueous CAPTISOL solutions, HPLC. Type of data set: physicochemical. As to conditions: for Ganaxolone conc. by HPLC: 42 hours equilibrium. How it is done: Ganaxolone solubility in aqueous CAPTISOL solution was first determined by constructing a phase solubility diagram. Excess ganaxolone was shaken in aqueous CAPTISOL solutions of known concentrations for 42 hours to reach equilibrium. The ganaxolone solution was filtered into HPLC vials through 0.45 μm syringe filters. The filtrates were assayed for ganaxolone concentration by HPLC. Moles of ganaxolone in solution against moles of CAPTISOL added were plotted.

A short description of data set [2]: Ganaxolone concentration reached in 30% Captisol solutions (with additives or dry mixing), HPLC. The data set is classed as physicochemical. How it is done: 500 μl of 10% aqueous Polysorbate 80 solution in a 20 ml scintillation vial were combined with powdered ganaxolone (50 mg). The mixture was stirred to wet the ganaxolone. Solid Captisol (3.2 g), sufficient to form a 30% Captisol solution, was then added to the vial and the vial contents were mixed. Deionized water (8.0 g) was then added and the mixture was vigorously stirred at room temperature overnight to obtain a hazy solution. An aliquot was filtered through 0.2 μm syringe filter and ganaxolone concentration was assayed by HPLC to be 4.28 mg/ml.
Ganaxolone was vigorously stirred in 30% Captisol in the presence of 10% v/v ethanol overnight to obtain a 3.16 mg/ml ganaxolone solution. • (b) Ganaxolone-30% Captisol solution containing glycerin
Ganaxolone was vigorously stirred in 30% Captisol in the presence of 10% v/v glycerin overnight to obtain a 3.45 mg/ml ganaxolone solution. • (c) Ganaxolone-30% Captisol solution containing propylene glycol
Ganaxolone was vigorously stirred in 30% Captisol in the presence of 10% v/v propylene glycol overnight to obtain a 2.53 mg/ml ganaxolone solution.
Powdered ganaxolone (125 mg) was charged into 100 ml beaker. Captisol powder (7.9 g) was then added to the beaker. The mixture was mixed by stirring with a magnetic stir bar for 5 min. Deionized water (20.1 g) was weighed into a plastic cup. About half of the water was added into the beaker and the contents were vigorously stirred for 30 minutes to obtain a homogeneous mixture. The remaining water was added and the beaker was covered with paraffin film.

Consider `CC(=O)[C@H]1CC[C@H]2[C@@H]3CC[C@H]4C[C@](C)(O)CC[C@]4(C)[C@H]3CC[C@]12C` [Ganaxolone, 3α-hydroxy, 3β-methyl-5α-pregnan-20-one], for which the Ganaxolone conc. is 0 mM in data set [1] (CAPTISOL 0 mg/mL); 1.3 mM in data set [1] (CAPTISOL 25 mg/mL (0.0116 M)); 2.7 mM in data set [1] (CAPTISOL 50 mg/mL (0.0231 M)); 5.6 mM in data set [1] (CAPTISOL 100 mg/mL (0.0462 M)); 10.9 mM in data set [1] (CAPTISOL 200 mg/mL (0.0925 M)); 23.1 mM in data set [1] (CAPTISOL 400 mg/mL (0.185 M)). Besides, the “Ganaxolone conc. by HPLC” value in data set [1] (CAPTISOL 0 mg/mL) was “Not detectable”; in data set [1] (CAPTISOL 25 mg/mL (0.0116 M)) it was 0.43 mg/mL; in data set [1] (CAPTISOL 50 mg/mL (0.0231 M)), 0.88 mg/mL; in data set [1] (CAPTISOL 100 mg/mL (0.0462 M)), 1.86 mg/mL; in data set [1] (CAPTISOL 200 mg/mL (0.0925 M)) it was 3.63 mg/mL; in data set [1] (CAPTISOL 400 mg/mL (0.185 M)), 7.68 mg/mL. The “ganaxolone concentration by HPLC” value in data set [2] (30% Captisol with Polysorbate 80, stirred overnight at room temperature, 0.2 μm filtered) stood at 4.28 mg/mL. In addition, the “ganaxolone concentration of solution” value turned out to be 3.16 mg/mL in data set [2] (30% Captisol, 10% v/v ethanol, stirred overnight); 3.45 mg/mL in data set [2] (30% Captisol, 10% v/v glycerin, stirred overnight); 2.53 mg/mL in data set [2] (30% Captisol, 10% v/v propylene glycol, stirred overnight); 4.61 mg/mL in data set [2] (30% Captisol, prior dry mixing of ganaxolone and Captisol, stirred overnight at room temperature). In addition, in data set [2] (30% Captisol, dry mixing, after 90 hours of stirring), the “ganaxolone concentration after prolonged stirring” value is given as “unchanged”.

These data come from US20250325562A1, “Intravenous Ganaxolone Formulations and Methods of Use in Treating Status Epilepticus and Other Seizure Disorders” (MARINUS PHARMACEUTICALS, INC., priority 2015, published 2025).
